Test system: RNA probe (thiol / methylene blue E-AB aptamer) (RNA, aptamer) GGGACUUGGUUUAGGUAAUGAGUCCC
Experiment: electrochemical aptamer-based sensor, square wave voltammetry
Details: 100 mM NaCl, 5 mM MgCl2; 20 mM Tris, pH 7.5; aptamer immobilised on gold

Structure (SMILES): NC[C@H]1O[C@H](O[C@H]2[C@H](O)[C@@H](O[C@H]3O[C@H](CO)[C@@H](O)[C@H](N)[C@H]3O)[C@H](N)C[C@@H]2N)[C@H](O)[C@@H](O)[C@@H]1O
- dissociation constants: 281 µM
